{"source": "paper PMC5666424", "about": "“Marine-Derived 2-Aminoimidazolone Alkaloids. Leucettamine B-Related Polyandrocarpamines Inhibit Mammalian and Protozoan DYRK & CLK Kinases” (Marine Drugs, 2017)", "test_in_all_cases": "KinomeScan", "assay_type_in_all_cases": "binding", "conditions_in_all_cases": "1 μM", "key": {"MAP4K4": {"target": "T1, MAP4K4 (Homo sapiens, UniProt O95819)", "T1 construct": "purchased DiscoverX (KINOMEscan)", "protocol": "(§1) Assays were performed essentially as described previously. For most assays, kinase-tagged T7 phage strains were grown in parallel in 24-well blocks in an E. coli host derived from the BL21 strain. E. coli were grown to log-phase and infected with T7 phage from a frozen stock (multiplicity of infection ~0.1) and incubated with shaking at 32 °C until lysis (~90 min). The lysates were centrifuged (6000× g) and filtered (0.2 μm) to remove cell debris. The remaining kinases were produced in HEK-293 cells and subsequently tagged with DNA for qPCR detection. […] The liganded beads were blocked with excess biotin and washed with blocking buffer (SeaBlock (Pierce, ThermoFisher Scientific, Illkirch, France), 1% BSA, 0.05% Tween 20, 1 mM DTT) to remove unbound ligand and to reduce non-specific phage binding. […] An 11-point threefold serial dilution of each test compound was prepared in 100% DMSO at 100× final test concentration which and subsequently diluted to 1× in the assay. All reactions were performed in polystyrene 96-well plates in a final volume of 0.135 mL. […] The kinase concentration in the eluates was measured by qPCR."}, "CAMK1D": {"target": "T2, CAMK1D (Homo sapiens, UniProt Q8IU85)", "T2 construct": "purchased DiscoverX (KINOMEscan)", "protocol": "as §1"}, "EPHA1": {"target": "T3, EPHA1 (Homo sapiens, UniProt P21709)", "T3 construct": "purchased DiscoverX (KINOMEscan)", "T3 sequence (P21709 26-976)": "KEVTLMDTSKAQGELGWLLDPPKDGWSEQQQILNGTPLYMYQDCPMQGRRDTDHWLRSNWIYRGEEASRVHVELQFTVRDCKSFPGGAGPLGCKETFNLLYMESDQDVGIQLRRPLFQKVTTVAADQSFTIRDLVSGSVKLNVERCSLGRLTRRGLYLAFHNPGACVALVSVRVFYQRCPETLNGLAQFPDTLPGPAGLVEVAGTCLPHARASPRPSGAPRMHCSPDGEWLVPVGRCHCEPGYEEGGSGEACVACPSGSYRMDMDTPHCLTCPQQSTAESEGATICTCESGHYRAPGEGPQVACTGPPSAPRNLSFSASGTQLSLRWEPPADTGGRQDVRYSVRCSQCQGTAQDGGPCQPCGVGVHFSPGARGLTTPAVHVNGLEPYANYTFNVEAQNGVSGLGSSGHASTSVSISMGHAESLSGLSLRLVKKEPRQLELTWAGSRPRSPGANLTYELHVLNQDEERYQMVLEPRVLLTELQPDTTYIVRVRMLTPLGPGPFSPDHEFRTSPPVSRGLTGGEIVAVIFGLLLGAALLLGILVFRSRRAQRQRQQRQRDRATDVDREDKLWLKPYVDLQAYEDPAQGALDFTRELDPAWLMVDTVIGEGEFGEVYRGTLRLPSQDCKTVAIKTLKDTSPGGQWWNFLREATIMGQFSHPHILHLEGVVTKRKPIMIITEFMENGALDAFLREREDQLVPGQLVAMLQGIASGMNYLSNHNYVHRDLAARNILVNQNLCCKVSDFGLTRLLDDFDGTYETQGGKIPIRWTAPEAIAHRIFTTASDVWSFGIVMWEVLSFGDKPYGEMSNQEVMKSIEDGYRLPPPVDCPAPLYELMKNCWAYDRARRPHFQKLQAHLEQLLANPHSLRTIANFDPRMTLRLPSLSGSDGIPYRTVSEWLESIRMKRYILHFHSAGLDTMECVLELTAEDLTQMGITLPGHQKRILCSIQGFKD", "protocol": "as §1"}, "AMPK-alpha1": {"target": "T4, AMPK-alpha1 (Homo sapiens, UniProt Q13131)", "T4 construct": "purchased DiscoverX (KINOMEscan)", "protocol": "as §1"}, "EGFR(L858R,T790M)": {"target": "T5, EGFR(L858R,T790M) (Homo sapiens, UniProt P00533, L858R/T790M)", "T5 construct": "purchased DiscoverX (KINOMEscan)", "protocol": "as §1"}, "HPK1": {"target": "T6, HPK1 (Homo sapiens, UniProt Q92918)", "T6 construct": "purchased DiscoverX (KINOMEscan)", "protocol": "as §1"}, "GSK3B": {"target": "T7, GSK3B (Homo sapiens, UniProt P49841)", "T7 construct": "purchased DiscoverX (KINOMEscan)", "protocol": "as §1"}, "CAMK2A": {"target": "T8, CAMK2A (Homo sapiens, UniProt Q9UQM7)", "T8 construct": "purchased DiscoverX (KINOMEscan)", "protocol": "as §1"}, "MERTK": {"target": "T9, MERTK (Homo sapiens, UniProt Q12866)", "T9 construct": "purchased DiscoverX (KINOMEscan)", "T9 sequence (Q12866 21-999)": "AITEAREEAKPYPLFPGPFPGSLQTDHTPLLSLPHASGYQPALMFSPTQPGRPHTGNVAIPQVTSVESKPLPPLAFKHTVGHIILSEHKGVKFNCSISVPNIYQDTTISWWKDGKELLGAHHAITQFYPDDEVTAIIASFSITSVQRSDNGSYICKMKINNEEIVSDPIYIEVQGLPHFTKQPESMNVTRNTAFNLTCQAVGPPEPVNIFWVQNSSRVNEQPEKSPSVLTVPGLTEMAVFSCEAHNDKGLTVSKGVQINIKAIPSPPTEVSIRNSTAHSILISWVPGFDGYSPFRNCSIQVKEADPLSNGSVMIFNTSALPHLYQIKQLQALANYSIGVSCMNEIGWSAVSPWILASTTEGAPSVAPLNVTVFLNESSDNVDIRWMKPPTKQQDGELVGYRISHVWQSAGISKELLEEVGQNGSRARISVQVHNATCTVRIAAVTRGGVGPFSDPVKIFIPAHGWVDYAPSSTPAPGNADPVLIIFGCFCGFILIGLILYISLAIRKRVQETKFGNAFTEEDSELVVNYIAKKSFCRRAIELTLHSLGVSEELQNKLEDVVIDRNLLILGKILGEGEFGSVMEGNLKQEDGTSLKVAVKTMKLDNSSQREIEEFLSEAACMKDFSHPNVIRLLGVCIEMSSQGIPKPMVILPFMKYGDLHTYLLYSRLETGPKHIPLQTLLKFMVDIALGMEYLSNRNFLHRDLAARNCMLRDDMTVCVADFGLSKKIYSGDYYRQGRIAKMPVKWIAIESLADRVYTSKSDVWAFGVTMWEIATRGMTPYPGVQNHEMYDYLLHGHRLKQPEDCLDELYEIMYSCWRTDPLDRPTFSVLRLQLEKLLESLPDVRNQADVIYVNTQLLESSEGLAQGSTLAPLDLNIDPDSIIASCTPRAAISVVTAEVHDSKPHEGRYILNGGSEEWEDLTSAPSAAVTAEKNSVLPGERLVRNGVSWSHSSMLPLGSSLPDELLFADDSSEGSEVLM", "protocol": "as §1"}, "LIMK2": {"target": "T10, LIMK2 (Homo sapiens, UniProt P53671)", "T10 construct": "purchased DiscoverX (KINOMEscan)", "protocol": "as §1"}, "CAMK2G": {"target": "T11, CAMK2G (Homo sapiens, UniProt Q13555)", "T11 construct": "purchased DiscoverX (KINOMEscan)", "protocol": "as §1"}, "BIKE": {"target": "T12, BIKE (Homo sapiens, UniProt Q9NSY1)", "T12 construct": "purchased DiscoverX (KINOMEscan)", "protocol": "as §1"}, "DDR2": {"target": "T13, DDR2 (Homo sapiens, UniProt Q16832)", "T13 construct": "purchased DiscoverX (KINOMEscan)", "T13 sequence (Q16832 22-855)": "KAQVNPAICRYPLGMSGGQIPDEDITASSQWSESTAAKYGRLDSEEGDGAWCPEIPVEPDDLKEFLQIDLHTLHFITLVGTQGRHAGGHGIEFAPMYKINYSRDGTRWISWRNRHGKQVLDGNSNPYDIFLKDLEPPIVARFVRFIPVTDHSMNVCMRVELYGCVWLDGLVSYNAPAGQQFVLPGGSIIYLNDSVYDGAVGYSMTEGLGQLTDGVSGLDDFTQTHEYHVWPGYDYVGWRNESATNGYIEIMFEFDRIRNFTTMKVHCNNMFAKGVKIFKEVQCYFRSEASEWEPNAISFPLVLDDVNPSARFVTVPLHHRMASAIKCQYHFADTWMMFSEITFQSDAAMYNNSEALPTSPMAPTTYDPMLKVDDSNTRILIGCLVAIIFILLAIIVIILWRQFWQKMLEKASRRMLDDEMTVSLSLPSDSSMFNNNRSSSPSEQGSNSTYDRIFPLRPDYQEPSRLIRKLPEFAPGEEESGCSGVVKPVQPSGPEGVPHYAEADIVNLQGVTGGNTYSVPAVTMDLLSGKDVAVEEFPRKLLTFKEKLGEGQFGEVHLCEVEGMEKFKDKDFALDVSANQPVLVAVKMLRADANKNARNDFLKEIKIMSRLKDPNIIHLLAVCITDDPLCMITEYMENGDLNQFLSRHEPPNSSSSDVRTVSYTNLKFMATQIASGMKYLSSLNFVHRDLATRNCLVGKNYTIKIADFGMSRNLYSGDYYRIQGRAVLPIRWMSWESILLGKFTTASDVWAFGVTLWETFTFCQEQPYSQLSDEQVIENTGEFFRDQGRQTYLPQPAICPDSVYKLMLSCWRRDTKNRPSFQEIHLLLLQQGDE", "protocol": "as §1"}, "MEK6": {"target": "T14, MEK6 (Homo sapiens, UniProt P52564)", "T14 construct": "purchased DiscoverX (KINOMEscan)", "protocol": "as §1"}, "CSNK1A1": {"target": "T15, CSNK1A1 (Homo sapiens, UniProt P48729)", "T15 construct": "purchased DiscoverX (KINOMEscan)", "protocol": "as §1"}, "ACVR1B": {"target": "T16, ACVR1B (Homo sapiens, UniProt P36896)", "T16 construct": "purchased DiscoverX (KINOMEscan)", "T16 sequence (P36896 24-505)": "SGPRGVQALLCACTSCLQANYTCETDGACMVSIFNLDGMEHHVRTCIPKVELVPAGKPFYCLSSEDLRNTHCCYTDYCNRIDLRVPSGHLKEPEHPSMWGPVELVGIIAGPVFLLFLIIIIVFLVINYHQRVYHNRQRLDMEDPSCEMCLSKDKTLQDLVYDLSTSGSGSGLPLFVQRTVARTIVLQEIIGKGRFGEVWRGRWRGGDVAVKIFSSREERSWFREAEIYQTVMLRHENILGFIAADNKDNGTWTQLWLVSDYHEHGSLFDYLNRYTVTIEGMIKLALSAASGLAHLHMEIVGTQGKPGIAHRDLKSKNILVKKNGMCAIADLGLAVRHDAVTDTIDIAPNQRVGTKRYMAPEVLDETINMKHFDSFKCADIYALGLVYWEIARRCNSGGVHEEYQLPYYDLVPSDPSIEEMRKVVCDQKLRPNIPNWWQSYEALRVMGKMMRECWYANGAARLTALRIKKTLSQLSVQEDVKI", "protocol": "as §1"}, "SRPK2": {"target": "T17, SRPK2 (Homo sapiens, UniProt P78362)", "T17 construct": "purchased DiscoverX (KINOMEscan)", "protocol": "as §1"}, "AMPK-alpha2": {"target": "T18, AMPK-alpha2 (Homo sapiens, UniProt P54646)", "T18 construct": "purchased DiscoverX (KINOMEscan)", "protocol": "as §1"}, "MKK7": {"target": "T19, MKK7 (Homo sapiens, UniProt O14733)", "T19 construct": "purchased DiscoverX (KINOMEscan)", "protocol": "as §1"}, "IRAK1": {"target": "T20, IRAK1 (Homo sapiens, UniProt P51617)", "T20 construct": "purchased DiscoverX (KINOMEscan)", "protocol": "as §1"}, "BMPR1B": {"target": "T21, BMPR1B (Homo sapiens, UniProt O00238)", "T21 construct": "purchased DiscoverX (KINOMEscan)", "T21 sequence (O00238 14-502)": "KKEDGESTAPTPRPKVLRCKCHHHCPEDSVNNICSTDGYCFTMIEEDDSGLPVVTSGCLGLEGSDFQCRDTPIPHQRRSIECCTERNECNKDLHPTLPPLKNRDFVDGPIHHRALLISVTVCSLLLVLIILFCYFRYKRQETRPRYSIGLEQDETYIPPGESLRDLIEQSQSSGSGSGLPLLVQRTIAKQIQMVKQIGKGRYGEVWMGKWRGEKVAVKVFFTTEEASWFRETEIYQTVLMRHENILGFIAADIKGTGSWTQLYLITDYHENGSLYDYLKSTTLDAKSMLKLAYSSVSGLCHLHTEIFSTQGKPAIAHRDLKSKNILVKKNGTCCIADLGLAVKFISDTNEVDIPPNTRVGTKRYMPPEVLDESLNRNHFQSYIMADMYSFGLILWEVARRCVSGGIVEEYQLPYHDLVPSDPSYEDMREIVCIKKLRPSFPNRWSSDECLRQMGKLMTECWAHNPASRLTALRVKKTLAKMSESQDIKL", "protocol": "as §1"}, "MET": {"target": "T22, MET (Homo sapiens, UniProt P08581)", "T22 construct": "purchased DiscoverX (KINOMEscan)", "protocol": "as §1"}, "AURKA": {"target": "T23, AURKA (Homo sapiens, UniProt O14965)", "T23 construct": "purchased DiscoverX (KINOMEscan)", "protocol": "as §1"}, "CSNK2A1": {"target": "T24, CSNK2A1 (Homo sapiens, UniProt P68400)", "T24 construct": "purchased DiscoverX (KINOMEscan)", "protocol": "as §1"}, "KIT(L576P)": {"target": "T25, KIT(L576P) (Homo sapiens, UniProt P10721, L576P)", "T25 construct": "purchased DiscoverX (KINOMEscan)", "protocol": "as §1"}, "[1]": {"target": "T26, ABL1(F317L)-phosphorylated (Homo sapiens, UniProt P00519, F317L)", "T26 construct": "purchased DiscoverX (KINOMEscan)", "protocol": "as §1"}, "CLK2": {"target": "T27, CLK2 (Homo sapiens, UniProt P49760)", "T27 construct": "purchased DiscoverX (KINOMEscan)", "protocol": "as §1"}, "FGFR2": {"target": "T28, FGFR2 (Homo sapiens, UniProt P21802)", "T28 construct": "purchased DiscoverX (KINOMEscan)", "T28 sequence (P21802 22-821)": "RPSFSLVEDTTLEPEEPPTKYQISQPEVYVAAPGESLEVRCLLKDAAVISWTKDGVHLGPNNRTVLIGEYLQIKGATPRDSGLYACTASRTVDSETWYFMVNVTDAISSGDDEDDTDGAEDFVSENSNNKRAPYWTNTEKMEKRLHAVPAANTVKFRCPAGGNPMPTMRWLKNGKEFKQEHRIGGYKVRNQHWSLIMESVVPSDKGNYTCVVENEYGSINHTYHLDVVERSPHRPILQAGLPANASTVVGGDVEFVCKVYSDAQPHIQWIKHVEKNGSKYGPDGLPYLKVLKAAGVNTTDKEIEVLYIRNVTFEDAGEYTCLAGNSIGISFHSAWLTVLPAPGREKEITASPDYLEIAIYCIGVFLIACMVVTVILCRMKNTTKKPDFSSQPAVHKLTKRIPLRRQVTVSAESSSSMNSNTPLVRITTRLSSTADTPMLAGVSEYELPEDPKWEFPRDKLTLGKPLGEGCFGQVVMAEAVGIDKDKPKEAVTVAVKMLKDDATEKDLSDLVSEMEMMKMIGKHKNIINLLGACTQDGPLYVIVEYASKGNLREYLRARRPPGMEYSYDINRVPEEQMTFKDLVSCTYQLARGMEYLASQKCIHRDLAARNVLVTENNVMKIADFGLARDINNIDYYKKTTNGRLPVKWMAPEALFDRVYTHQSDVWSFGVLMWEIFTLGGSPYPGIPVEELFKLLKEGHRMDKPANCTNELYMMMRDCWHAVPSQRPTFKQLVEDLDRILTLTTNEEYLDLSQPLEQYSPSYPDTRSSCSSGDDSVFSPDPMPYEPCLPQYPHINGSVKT", "protocol": "as §1"}, "LIMK1": {"target": "T29, LIMK1 (Homo sapiens, UniProt P53667)", "T29 construct": "purchased DiscoverX (KINOMEscan)", "protocol": "as §1"}, "GSK3A": {"target": "T30, GSK3A (Homo sapiens, UniProt P49840)", "T30 construct": "purchased DiscoverX (KINOMEscan)", "protocol": "as §1"}, "IKK-epsilon": {"target": "T31, IKK-epsilon (Homo sapiens, UniProt Q14164)", "T31 construct": "purchased DiscoverX (KINOMEscan)", "protocol": "as §1"}, "GRK7": {"target": "T32, GRK7 (Homo sapiens, UniProt Q8WTQ7)", "T32 construct": "purchased DiscoverX (KINOMEscan)", "protocol": "as §1"}, "MEK3": {"target": "T33, MEK3 (Homo sapiens, UniProt P46734)", "T33 construct": "purchased DiscoverX (KINOMEscan)", "protocol": "as §1"}, "[2]": {"target": "T34, ABL1(Q252H)-nonphosphorylated (Homo sapiens, UniProt P00519, Q252H)", "T34 construct": "purchased DiscoverX (KINOMEscan)", "protocol": "as §1"}, "ERK4": {"target": "T35, ERK4 (Homo sapiens, UniProt P31152)", "T35 construct": "purchased DiscoverX (KINOMEscan)", "protocol": "as §1"}, "ITK": {"target": "T36, ITK (Homo sapiens, UniProt Q08881)", "T36 construct": "purchased DiscoverX (KINOMEscan)", "protocol": "as §1"}, "FRK": {"target": "T37, FRK (Homo sapiens, UniProt P42685)", "T37 construct": "purchased DiscoverX (KINOMEscan)", "T37 sequence (P42685 whole entry)": "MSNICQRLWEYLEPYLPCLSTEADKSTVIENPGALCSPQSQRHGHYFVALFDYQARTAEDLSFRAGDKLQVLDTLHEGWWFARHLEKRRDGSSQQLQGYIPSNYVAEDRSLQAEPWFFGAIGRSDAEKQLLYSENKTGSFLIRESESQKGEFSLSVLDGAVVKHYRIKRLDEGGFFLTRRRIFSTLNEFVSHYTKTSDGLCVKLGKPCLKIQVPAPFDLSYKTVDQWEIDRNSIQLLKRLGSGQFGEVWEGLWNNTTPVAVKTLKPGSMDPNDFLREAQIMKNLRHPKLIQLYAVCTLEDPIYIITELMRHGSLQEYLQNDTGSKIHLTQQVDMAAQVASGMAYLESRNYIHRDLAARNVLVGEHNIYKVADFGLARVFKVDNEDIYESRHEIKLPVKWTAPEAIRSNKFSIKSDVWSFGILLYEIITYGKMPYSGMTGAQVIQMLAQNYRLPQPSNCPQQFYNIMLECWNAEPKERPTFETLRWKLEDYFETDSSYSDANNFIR", "protocol": "as §1"}}}
{"smiles": "COc1cc(/C=C2\\N=C(N)NC2=O)ccc1O", "note": "[Polyandrocarpamine A]", "values": [{"measurement": "Score", "setting": "MAP4K4", "result": 98}, {"measurement": "Score", "setting": "CAMK1D", "result": 100}, {"measurement": "Score", "setting": "EPHA1", "result": 100}, {"measurement": "Score", "setting": "AMPK-alpha1", "result": 100}, {"measurement": "Score", "setting": "EGFR(L858R,T790M)", "result": 100}, {"measurement": "Score", "setting": "HPK1", "result": 100}, {"measurement": "Score", "setting": "GSK3B", "result": 100}, {"measurement": "Score", "setting": "CAMK2A", "result": 98}, {"measurement": "Score", "setting": "MERTK", "result": 100}, {"measurement": "Score", "setting": "LIMK2", "result": 96}, {"measurement": "Score", "setting": "CAMK2G", "result": 99}, {"measurement": "Score", "setting": "BIKE", "result": 70}, {"measurement": "Score", "setting": "DDR2", "result": 69}, {"measurement": "Score", "setting": "MEK6", "result": 100}, {"measurement": "Score", "setting": "CSNK1A1", "result": 100}, {"measurement": "Score", "setting": "ACVR1B", "result": 81}, {"measurement": "Score", "setting": "SRPK2", "result": 100}, {"measurement": "Score", "setting": "AMPK-alpha2", "result": 87}, {"measurement": "Score", "setting": "MKK7", "result": 89}, {"measurement": "Score", "setting": "IRAK1", "result": 28}, {"measurement": "Score", "setting": "BMPR1B", "result": 42}, {"measurement": "Score", "setting": "MET", "result": 100}, {"measurement": "Score", "setting": "AURKA", "result": 100}, {"measurement": "Score", "setting": "CSNK2A1", "result": 12}, {"measurement": "Score", "setting": "KIT(L576P)", "result": 99}, {"measurement": "Score", "setting": "[1]", "result": 98}, {"measurement": "Score", "setting": "CLK2", "result": 45}, {"measurement": "Score", "setting": "FGFR2", "result": 100}, {"measurement": "Score", "setting": "LIMK1", "result": 100}, {"measurement": "Score", "setting": "GSK3A", "result": 100}, {"measurement": "Score", "setting": "IKK-epsilon", "result": 89}, {"measurement": "Score", "setting": "GRK7", "result": 100}, {"measurement": "Score", "setting": "MEK3", "result": 98}, {"measurement": "Score", "setting": "[2]", "result": 100}, {"measurement": "Score", "setting": "ERK4", "result": 100}, {"measurement": "Score", "setting": "ITK", "result": 94}, {"measurement": "Score", "setting": "FRK", "result": 100}]}
